In paper PMC10803289, “Transport and inhibition mechanism of the human SGLT2–MAP17 glucose transporter” (Nature Structural & Molecular Biology, 2023):
Residue numbers refer to the chain shown, from its start. Values joined by “and” are separate entries in the source; they are usually repeats but may differ in a detail not shown here. Equal values may be shown once. Read-outs that look alike come from different tables or passages of the source.

Experiments:
Type in all cases: cell-based
hSGLT2 F98A = target: T1, hSGLT2 F98A (Homo sapiens, UniProt P31639, F98A); assay: α-MG uptake in HEK293 cells, F98A mutant; parameters: expressed in transfected cells
T1 sequence (P31639 1-672 F98A): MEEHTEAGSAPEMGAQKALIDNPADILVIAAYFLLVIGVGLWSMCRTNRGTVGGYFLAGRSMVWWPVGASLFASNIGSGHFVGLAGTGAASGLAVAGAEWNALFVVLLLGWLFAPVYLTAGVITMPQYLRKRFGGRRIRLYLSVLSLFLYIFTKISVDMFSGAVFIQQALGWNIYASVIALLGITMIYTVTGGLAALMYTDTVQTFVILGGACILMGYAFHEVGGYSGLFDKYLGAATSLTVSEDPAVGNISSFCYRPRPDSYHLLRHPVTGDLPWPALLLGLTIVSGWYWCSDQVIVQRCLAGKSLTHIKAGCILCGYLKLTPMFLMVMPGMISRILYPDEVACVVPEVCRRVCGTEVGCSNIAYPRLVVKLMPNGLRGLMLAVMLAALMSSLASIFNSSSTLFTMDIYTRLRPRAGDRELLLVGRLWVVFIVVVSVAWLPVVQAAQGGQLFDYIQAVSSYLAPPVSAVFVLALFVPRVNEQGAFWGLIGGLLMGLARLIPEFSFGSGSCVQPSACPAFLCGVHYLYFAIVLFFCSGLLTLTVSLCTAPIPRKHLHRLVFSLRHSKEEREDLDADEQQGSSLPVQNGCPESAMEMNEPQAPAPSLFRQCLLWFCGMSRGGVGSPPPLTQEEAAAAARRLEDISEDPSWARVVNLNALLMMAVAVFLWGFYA
T1 sequence (Q13113 1-114 partner): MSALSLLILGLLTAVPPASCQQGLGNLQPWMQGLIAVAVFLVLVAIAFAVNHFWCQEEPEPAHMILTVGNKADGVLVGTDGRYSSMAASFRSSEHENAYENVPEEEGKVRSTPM
Source text: (§1) hSGLT2 complementary DNA and human MAP17 cDNA were synthesized and codon-optimized for expression in human cell lines. Both cDNAs were cloned into the pcDNA3.4 vector. The hSGLT2 sequence was fused with an N-terminal signal sequence from human trypsinogen 1, a His10 tag, and sfGFP, followed by a human rhinovirus 3C protease (HRV3C protease) recognition site. Point mutations were introduced into this construct using site-directed mutagenesis. These plasmids were utilized for all experimental procedures conducted in this study.
(§2) HEK293 cells (ECACC 85120602) were maintained in Dulbecco’s modified Eagle medium (Gibco) supplemented with 10% fetal bovine serum (Thermo Scientific), 2 mM L-glutamine, 100 U ml^−1 benzylpenicillin and 100 µg ml^−1 streptomycin at 37 °C in a humidified atmosphere (5% CO2 in air). HEK293 cells were seeded at 1.0 × 10^5 cells per well in poly-L-lysine coated 24-well plates. The cells in each well were transiently transfected with 0.25 µg hMAP17 plasmid and 0.50 µg hSGLT2 plasmid using Lipofectamine 2000 (Life Technologies) and cultured for 48 h. […] After preincubation, uptake was initiated by replacing the preincubation buffer with extracellular fluid buffer containing 500 μM α-MG in the absence or presence of inhibitors. Uptake was completed by removing the uptake buffer and washing with ice-cold buffer three times, followed by solubilization in 1 N NaOH at room temperature.
(§3) Cell lysates were deproteinized by adding acetonitrile containing candesartan as the internal standard. The α-MG concentration was quantified via liquid chromatography–tandem mass spectrometry (LC–MS/MS) using the internal standard method.
(§4) Cellular protein content was determined using a bicinchoninic acid protein assay kit (Thermo Fisher Scientific). The uptake of α-MG was expressed as the ratio of concentration in the cells (in pmol per mg protein) to concentration in the medium (in pmol μl^−1); this is known as the cell-to-medium ratio (in μl per mg protein).
(§5) In the inhibition study, the cell-to-medium ratio of cells transfected with the empty vector was used as the background. The specific α-MG uptake was calculated by subtracting this background from the total cell-to-medium ratio and normalized to the uptake achieved without the inhibitor. IC50 was calculated via nonlinear regression using GraphPad Prism 8.4.3.
(§6) The concentrations of the extract solution from the filter plate and of the cell lysate were quantified using a tandem mass spectrometry QTRAP6500 System (SCIEX) coupled with an ACQUITY UPLC system (Waters) using the internal standard method. Mobile phases A and B used 10 mM of ammonium bicarbonate and acetonitrile, respectively.

hSGLT2 F453A = target: T2, hSGLT2 F453A (Homo sapiens, UniProt P31639, F453A); assay: α-MG uptake in HEK293 cells, F453A mutant; parameters: expressed in transfected cells
T2 sequence (P31639 1-672 F453A): T1 sequence (P31639 1-672 F98A) with A98F, F453A
T2 sequence (Q13113 1-114 partner): T1 sequence (Q13113 1-114 partner)
Source text: as §1, §2, §3, §4, §5, §6

hSGLT2 S74A = target: T3, hSGLT2 S74A (Homo sapiens, UniProt P31639, S74A)
T3 construct: expressed in transfected cells; host or cells: Expi293 cells, crude membrane fraction
T3 sequence (P31639 whole entry S74A, one chain of several): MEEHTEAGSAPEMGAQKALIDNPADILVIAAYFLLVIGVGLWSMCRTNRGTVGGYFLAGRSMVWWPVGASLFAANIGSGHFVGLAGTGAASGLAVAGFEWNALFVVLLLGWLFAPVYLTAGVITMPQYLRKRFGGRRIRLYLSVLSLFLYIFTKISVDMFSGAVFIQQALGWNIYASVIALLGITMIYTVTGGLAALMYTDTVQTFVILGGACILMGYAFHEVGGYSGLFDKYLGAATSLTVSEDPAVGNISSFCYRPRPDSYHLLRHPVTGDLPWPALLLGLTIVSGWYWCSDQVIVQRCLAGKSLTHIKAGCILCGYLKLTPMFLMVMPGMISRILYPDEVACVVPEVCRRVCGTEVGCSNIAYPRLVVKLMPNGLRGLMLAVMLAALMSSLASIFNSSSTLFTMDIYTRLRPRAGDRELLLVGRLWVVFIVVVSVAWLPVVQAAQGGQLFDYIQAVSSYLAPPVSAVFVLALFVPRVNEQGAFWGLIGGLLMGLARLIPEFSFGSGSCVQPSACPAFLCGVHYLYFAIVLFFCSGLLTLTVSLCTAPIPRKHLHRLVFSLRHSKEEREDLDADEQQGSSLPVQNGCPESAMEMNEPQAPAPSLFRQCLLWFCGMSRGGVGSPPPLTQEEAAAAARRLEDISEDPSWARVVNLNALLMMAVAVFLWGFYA

O=C(CCc1ccc(O)cc1)c1c(O)cc(O)cc1O[C@@H]1O[C@H](CO)[C@@H](O)[C@H](O)[C@H]1O [Phlorizin]
remaining activity at 0.3 µM (hSGLT2 F98A; HEK293, Phlorizin 300 nM, read-out: α-MG uptake (% of control)): 80.5%
α-MG uptake (% of control) (hSGLT2 F98A; Phlorizin 0.3 nM): 115.8 % of control and 94.2 % of control and 155.8 % of control
α-MG uptake (% of control) (hSGLT2 F98A; Phlorizin 3 nM): 76.0 % of control and 88.8 % of control and 126.1 % of control
α-MG uptake (% of control) (hSGLT2 F98A; Phlorizin 10 nM): 79.6 % of control and 104.3 % of control and 76.0 % of control
α-MG uptake (% of control) (hSGLT2 F98A; Phlorizin 30 nM): 103.1 % of control and 103.4 % of control and 128.4 % of control
α-MG uptake (% of control) (hSGLT2 F98A; Phlorizin 100 nM): 135.2 % of control and 89.8 % of control and 99.6 % of control
α-MG uptake (% of control) (hSGLT2 F98A; Phlorizin 300 nM): 69.6 % of control and 82.5 % of control
α-MG uptake (% of control) (hSGLT2 F453A; Phlorizin 0.3 nM): 102.6 % of control and 120.9 % of control and 125.2 % of control
α-MG uptake (% of control) (hSGLT2 F453A; Phlorizin 1 nM): 103.4 % of control and 113.9 % of control and 124.6 % of control
α-MG uptake (% of control) (hSGLT2 F453A; Phlorizin 3 nM): 96.6 % of control and 95.6 % of control and 68.3 % of control
α-MG uptake (% of control) (hSGLT2 F453A; Phlorizin 10 nM): 133.1 % of control and 118.1 % of control and 89.5 % of control
α-MG uptake (% of control) (hSGLT2 F453A; Phlorizin 30 nM): 123.6 % of control and 119.1 % of control and 101.2 % of control
α-MG uptake (% of control) (hSGLT2 F453A; Phlorizin 100 nM): 126.1 % of control and 70.5 % of control and 71.8 % of control
α-MG uptake (% of control) (hSGLT2 S74A; Phlorizin 0.3 nM): 98.3 % of control and 109.0 % of control and 132.4 % of control
α-MG uptake (% of control) (hSGLT2 S74A; Phlorizin 1 nM): 94.4 % of control and 116.6 % of control and 114.8 % of control
α-MG uptake (% of control) (hSGLT2 S74A; Phlorizin 3 nM): 99.5 % of control and 109.8 % of control
α-MG uptake (% of control) (hSGLT2 S74A; Phlorizin 10 nM): 92.0 % of control and 68.8 % of control
α-MG uptake (% of control) (hSGLT2 S74A; Phlorizin 30 nM): 76.5 % of control and 90.7 % of control
α-MG uptake (% of control) (hSGLT2 S74A; Phlorizin 100 nM): 51.6 % of control and 68.4 % of control
α-MG uptake (% of control) (hSGLT2 S74A; Phlorizin 300 nM): 32.7 % of control and 25.1 % of control

CO[C@H]1O[C@H](CO)[C@@H](O)[C@H](O)[C@H]1O [α-MG, α-methyl-D-glucopyranoside]
α-MG uptake (hSGLT2 F98A; Fig. 3h): 55.68 μL/mg-protein and 75.98 μL/mg-protein and 85.61 μL/mg-protein
α-MG uptake (hSGLT2 F453A; Fig. 3h): 21.78 μL/mg-protein and 20.01 μL/mg-protein and 27.75 μL/mg-protein
α-MG uptake (hSGLT2 S74A; Fig. 3h): 27.75 μL/mg-protein and 30.77 μL/mg-protein and 34.71 μL/mg-protein
